Experimental data from ChEMBL document CHEMBL4732270, “Cell Permeability of Isomeric Macrocycles: Predictions and NMR Studies” (ACS Med Chem Lett, 2021).

Assay: Lipophilicity, log D of compound at pH 7.4 by UPLC-MS/MS analysis
Assay type: physicochemical
Conditions: buffer

logD | Structure (SMILES)
0.7 | COC(=O)[C@@H]1CSCc2ccccc2C(=O)OC[C@H](NC(=O)[C@@H]2CCCN2C(C)=O)CN1
0.43 | COC(=O)[C@@H]1CSCc2ccccc2C(=O)OC[C@@H](NC(=O)[C@@H]2CCCN2C(C)=O)CN1
0.65 | COC(=O)[C@H]1CSCc2ccccc2C(=O)OC[C@H](NC(=O)[C@@H]2CCCN2C(C)=O)CN1
0.6 | COC(=O)[C@H]1CSCc2ccccc2C(=O)OC[C@@H](NC(=O)[C@@H]2CCCN2C(C)=O)CN1
